In patent US6525028B1, “Immunoeffector compounds” (Corixa Corporation, priority 2002, dated 2003):
“Also recorded” adds a separate entry of the source. Structures can show the parent of a compound that is named as a salt.

Key:
[1] = test system: IL-1β; assay: Ex vivo cytokine induction, IL-1β by sandwich ELISA (Example 8); format: cell-based, human; conditions: for relative induction of IL-1β: level induced with MPL immunostimulant assigned a value of 1
Experimental: (§1) The effects of Compound II on the elaboration of TNF-α and IL-1β was measured under ex vivo conditions on human peripheral blood mononuclear cells. MPL® immunostimulant and Compound II were formulated in aqueous solutions of 0.2% TEoA/WFI.
(§2) Human whole blood was used to evaluate the ability of glycolipids (AGPS) to induce proinflammatory cytokines. Human whole blood is collected into heparinized tubes and 0.45 ml of whole blood is admixed with 0.05 ml phosphate buffered saline (PBS, pH 7.4) containing the glycolipid (i.e., the test compounds). The tubes are incubated for 4 hr at 37° C. on a shaker apparatus. The samples are then diluted with 1.5 ml sterile PBS and centrifuged. The supernatants are removed and analyzed for […] TNF-α and IL-1β by sandwich ELISA using R&D Systems' Quantikine immunoassay kits for human TNF-α and IL-1β.

[2] = test system: hemagglutinin protein in FluZone influenza vaccine; assay: Adjuvant activity towards hemagglutinin protein in FluZone influenza vaccine, FluZone ELISA (Example 5); conditions: for Serum Titers IgG / Serum Titers IgG1 / Serum Titers IgG2a / Serum Titers IgG2b: s.c. 0.2 μg hemagglutinin in FluZone + 20 μg adjuvant day 0 and 14, pooled sera of 5 mice 14 days post secondary
Experimental: Groups of BALB/c mice (Jackson Laboratories Bar Harbor, Me.) 6-8 weeks old were injected subcutaneous with 0.2 μg hemagglutinin protein in FluZone influenza vaccine (Connaught Laboratories, Swiftwater, Pa.) ±20 μg adjuvant (MPL® immunostimulant orCompound II) on day 0 and day 14. […] The nonimmune controls were not vaccinated. The initial dilutions used on sera from test groups was 1:1600.

[3] = test system: HBsAg (Hepatitis B Surface Antigen); assay: Adjuvant activity towards HBsAg, serum titers by ELISA (Example 4); format: in vivo, BALB/c mice; conditions: for Serum Titers IgG / Serum Titers IgG1 / Serum Titers IgG2a / Serum Titers IgG2b: s.c. 2 μg HBsAg + 20 μg adjuvant day 0 and 21, pooled sera (5 mice/group) 21 days post-secondary
Experimental: Vaccines were prepared by mixing the adjuvant-containing TEoA (triethanolamine) formulations with recombinant HBsAg. Titers to HBsAg were determined by ELISA from pooled sera (5 mice/group) collected 21 days post-secondary vaccination (Table 1). The nonimmune controls were not vaccinated.

[4] = test system: Inducible Nitric Oxide Synthase (iNOS); assay: iNOS induction in IFN-γ primed J774 murine macrophages, Greiss reagent nitrite release (Example 9); format: cell-based; conditions: IFN-γ primed J774 cells
Experimental: This example illustrates the effects of various glycolipids on iNOS induction in J774 murine macrophages. The murine macrophage cell line J774 can be primed by IFN-γ in vitro and is very responsive to subsequent LPS stimulation of iNOS upregulation as measured by a standard Greiss reagent ELISA assay procedure. The assay utilizes J774 cells seeded at 1×10^6/mL with 30 mL/flask and with IFN-γ added at 100 units/mL for 16-24 hrs. Cells are then harvested and washed and resuspended at 2×10^5/well in a 96-well plate and allowed to adhere. Glycolipid compounds are serially diluted into the wells for a test group and the resulting cultures are incubated for another 36-40 hrs before culture supernatants are collected from Greiss reagent analysis of nitrite release (Green et al. (1982) Anal. Biochem. 126: 131-138). Nitrite content closely parallels iNOS function.
Potency was determined as the concentration (ng/mL) of glycolipid in culture capable of inducing one-half maximal induction of nitrite (ED50). The lower the ED50 number, the greater the potency for iNOS induction. The ED50 was cacluated according to methods set out in Johnson et al., (1999) J Med Chem. 42: 4640-4649.

[5] = test system: HBsAg; assay: Adjuvant activity towards HBsAg, IgG1 and IgG2a isotype titers by ELISA (Example 6); format: in vivo, BALB/c mice; conditions: for Serum Titers IgG1 / Serum Titers IgG2a: s.c. 2.0 μg HBsAg + 25 μg adjuvant day 0 and 21, pooled sera 21 days post secondary; for titers to HBsAg, in words: versus control group receiving antigen in PBS / positive control MPL
Experimental: Groups of BALB/c mice injected subcutaneous with 2.0 μg HBsAg(Rhein Americana, & Rhein Biotech) ±25 μg adjuvant (MPLO immunostinulant orCompound II) on day 0 and day 21. IgG1 and IgG2a isotype titers to HBsAg were determined by ELISA from pooled sera collected 21 days post secondary (Table 3). The nonimmune controls were not vaccinated.

[6] = Rabbit pyrogen test; format: in vivo, rabbits; conditions: for Pyrogenicity (total rise of 3 rabbits): total rise of 3 rabbits following i.v. 10 μg/Kg dose, solubilized in 10% EtOH/WFI, diluted with 5% dextrose in water
From the text: In an effort to obtain an immunostimulant that has low pyrogenicity, synthetic molecules have been prepared which share structural similarities with the MPLO immunostimulant. These novel molecules which are collectively called aminoalkyl glucosaminide phosphates (AGPs), consist of an acylated […] moiety linked to an acylated aminoalkyl group (Johnson et al. (1999) Bioorg. Med. Chem. Lett. 9: 2273-2278; PCTAWO98/50399 and references therein). […] The substitution of different chemical moieties within the aminoalkyl structures was designed into the AGPs in anticipation of optimizing stability and solubility properties. Thus the AGPs can be broadly separated into several families based on the structure of their aminoalkyl groups. After initial biological evaluation, it became apparent that the aminoalkyl motifs could dramatically affect the pyrogenic properties of the AGPs (see U.S. patent application Ser. No. 09/074,720 filed May 7, 1998, and U.S. Pat. Nos. 6,113,918 and 6,303,347). As part of the initial screening process of the synthetic adjuvant compounds, rabbit pyrogenicity data was determined. […] Here we report on studies of the adjuvant properties of a class of AGPs which induce minimal activity in both the rabbit pyrogen test and the ex vivo cytokine assay.

[7] = cited from earlier work
[8] = test system: TNF-α; assay: Ex vivo cytokine induction, TNF-α by sandwich ELISA (Example 8); format: cell-based; conditions: human blood cells, 4 hr at 37° C.
Experimental: as §1, §2

[9] = versus control sera receiving antigen alone

Compound | relative induction of IL-1β [1] | Serum Titers IgG [2] | Serum Titers IgG1 [2] | Serum Titers IgG2a [2] | Serum Titers IgG2b [2] | Serum Titers IgG [3] | Serum Titers IgG1 [3] | Serum Titers IgG2a [3] | Serum Titers IgG2b [3] | Serum Titers IgG1 [5] | Serum Titers IgG2a [5] | Pyrogenicity (total rise of 3 rabbits) [6] | titers to HBsAg, in words [5] | other results
Monophosphoryl lipid A [MPL® immunostimulant, reference compound] | 1 | 102,400 | 102,400 | 25,600 | 12,800 | 409,600 | 204,800 | 204,800 | 51,200 | 128,000 | 1,024,000 | 2-3 °C | – | iNOS induction / nitrite elaboration, in words [4]: high levels of nitrite elaboration; dose that can be safely administered to humans ([7]; humans): at least 20 μg/kg; dose levels at which increases in temperature, flu-like symptoms, increasing heart rate and modest decreases in blood pressure can occur ([7]; some patients): ≥ 0.01 mg/kg; concentration effective at inducing TNF-α [8]: 100 to 10,000 ng/mL
N-[(R)-3-tetradecanoyloxytetradecanoyl]-(S)-2-pyrrolidinylmethyl 2-deoxy-4-O-phosphono-2-[(R)-3-tetradecanoyloxytetradecanoylamino]-3-O-[(R)-3-tetradecanoyloxytetradecanoyl]-β-D-glucopyranoside triethylammonium salt [Compound II] | – | – | – | – | – | – | – | – | – | – | – | – | titers equivalent to the positive controls | –
CCCCCCCCCCCCCC(=O)O[C@H](CCCCCCCCCCC)CC(=O)N[C@H]1[C@H](OC[C@@H]2CCCN2C(=O)C[C@@H](CCCCCCCCCCC)OC(=O)CCCCCCCCCCCCC)O[C@H](CO)[C@@H](OP(=O)(O)O)[C@@H]1OC(=O)C[C@@H](CCCCCCCCCCC)OC(=O)CCCCCCCCCCCCC [Compound II, N-[(R)-3-tetradecanoyloxytetradecanoyl]-(S)-2-pyrrolidinylmethyl 2-deoxy-4-O-phosphono-2-[(R)-3-tetradecanoyloxytetradecanoylamino]-3-O-[(R)-3-tetradecanoyloxytetradecanoyl]-β-D-glucopyranoside triethylammonium salt] | ≤ 0.05 | 51,200 | 102,400 | 25,600 | 6400 | 409,600 | 204,800 | 409,600 | 51,200 | 32,000 | 2,048,000 | 0.3 °C | increased titers compared to the control group | induction of IL-1β, in words ([1]; ex vivo, human blood cells, 4 hr at 37° C., Compound II at 1, 5 and 10 μg/ml): did not produce detectable levels of IL-1β; also recorded: without inducing detectable levels; titers to FluZone, in words [2, 9]: significantly higher than control sera receiving antigen alone; anti-HBsAg responses (serum titers), in words [3, 9]: significantly higher than control sera receiving antigen alone; fever response in the rabbit pyrogen test, in words ([6]; i.v. 10 μg/kg): apparent lack of fever; induction of TNF-α, in words ([8]; Compound II at 1, 5 and 10 μg/ml): did not produce levels of TNF-α that could be detected; also recorded: without inducing detectable levels
